As usually defined, the mortality is the share of the test organisms that died.

This is an account of results in US9795140B2, “Molecules having pesticidal utility, and intermediates, compositions, and processes, related thereto” (priority 2015, dated 2017).

What all share (format): in vivo
The subject of data set [1] is Yellow Fever Mosquito (Aedes aegypti, AEDSAE). Kind of data set: Bioassay on Yellow Fever Mosquito (YFM) larvae, 96-well plate. Particulars: about 1 day-old larvae, room temperature, 3 days, scored on mortality. The essentials:
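Each well was scored for mortality after 3 days at room temperature under a non-evaporative lid. Test molecules came from DMSO masters (4000 ppm stock) diluted with water/acetone 90:10 and dispensed into six replicate plates, which were then infested with roughly 1-day-old larvae in liver-powder water.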

In data set [2] the test system is Beet Armyworm (Spodoptera exigua, LAPHEG). Kind of data set: Bioassay on Beet Armyworm (BAW), 128-well diet tray assay. To be noted: 168 h, 50 μg/cm^2 on artificial diet, second instar larvae, 25° C., five to seven days, average of eight wells, read-out: BAW % Control (or Mortality) rating. A digest of the protocol: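 Diet tray, 8 wells/compound; 50 μg/cm^2 applied to diet surface (90:10 acetone-water), dried. 1–5 L2 larvae/well; 25° C., 14:10 L:D, 5–7 d. Read-out: % mortality, mean of 8 wells.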

For data set [3], the system named is Cabbage Looper (Trichoplusia ni, TRIPNI). Description: Bioassay on Cabbage Looper (CL), 128-well diet tray assay. Particulars: 168 h, 50 μg/cm^2 on artificial diet, second instar larvae, 25° C., five to seven days, average of eight wells, read-out: CL % Control (or Mortality) rating. A digest of the protocol:
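Percent larval mortality, averaged across eight replicate wells, was scored after 5–7 days at 25 °C with a 14:10 photoperiod. Each well held 1 mL diet surface-treated at 50 μg/cm^2 with test molecule from a 90:10 acetone-water solution, then dried. Wells were infested with one to five second-instar cabbage loopers.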

Consider `O=C(NCC(F)(F)F)c1cc(NC(=O)[C@H]2[C@H](c3ccc(C(F)F)c(F)c3)C2(Cl)Cl)ccc1Cl` (relative stereo) [F133, 2-Chloro-5-(trans-2,2-dichloro-3-(4-(difluoromethyl)-3-fluorophenyl)cyclopropane-1-carboxamido)-N-(2,2,2-trifluoroethyl)benzamide], for which the “YFM % Control (or Mortality) rating” value in data set [1] is recorded as “A (80-100)”. In addition, the mortality at 50 µg/cm2 in data set [2] and in data set [3] was 50 to 100% throughout.
Take `O=C(NCC(F)(F)F)c1cc(NC(=O)[C@H]2[C@H](c3cccc(C(F)F)c3)C2(Cl)Cl)ccc1Cl` (relative stereo) [F134, 2-Chloro-5-(trans-2,2-dichloro-3-(3-(difluoromethyl)phenyl)cyclopropane-1-carboxamido)-N-(2,2,2-trifluoroethyl)benzamide]: in data set [1], the “YFM % Control (or Mortality) rating” value is “A (80-100)”. Also, the mortality at 50 µg/cm2 in data set [2] and in data set [3] was 50 to 100% each time.
In the case of `O=C(NCC(F)(F)F)c1cc(NC(=O)[C@H]2[C@H](c3ccc(C(F)F)cc3)C2(Cl)Cl)ccc1Cl` (relative stereo) [F135, 2-Chloro-5-(trans-2,2-dichloro-3-(4-(difluoromethyl)phenyl)cyclopropane-1-carboxamido)-N-(2,2,2-trifluoroethyl)benzamide], the “YFM % Control (or Mortality) rating” value in data set [1] was “A (80-100)”. Also, the values for the mortality at 50 µg/cm2 in data set [2] and in data set [3] were 0% and 50 to 100%, respectively.
On to `O=C(NCC(F)(F)F)c1cc(NC(=O)[C@H]2[C@H](c3cc(Cl)cc(Cl)c3)C2(Br)Br)ccc1Cl` (relative stereo) [PF1, trans-2-Chloro-5-(2,2-dibromo-3-(3,5-dichlorophenyl)cyclopropane-1-carboxamido)-N-(2,2,2-trifluoroethyl)benzamide], for which the “YFM % Control (or Mortality) rating” value in data set [1] is listed as “D (No activity noticed in this bioassay)”. Further, the mortality at 50 µg/cm2 in data set [2] and in data set [3] was 50 to 100% in each case.
As to `O=C(NCCSCc1ccco1)c1cc(NC(=O)[C@H]2[C@H](c3cc(Cl)cc(Cl)c3)C2(Cl)Cl)ccc1Cl` (relative stereo) [PF9, trans-2-Chloro-5-(2,2-dichloro-3-(3,5-dichlorophenyl)cyclopropane-1-carboxamido)-N-(2-((furan-2-ylmethyl)thio)ethyl)benzamide], the “YFM % Control (or Mortality) rating” value in data set [1] is listed as “A (80-100)”. In addition, the mortality at 50 µg/cm2 in data set [2] and in data set [3] was 50 to 100% in each case.
Consider `COC(=O)C(CCSC)NC(=O)c1cc(NC(=O)[C@H]2[C@H](c3cc(Cl)cc(Cl)c3)C2(Cl)Cl)ccc1Cl` (relative stereo) [PF10, trans-Methyl-2-(2-chloro-5-(2,2-dichloro-3-(3,5-dichlorophenyl)cyclopropane-1-carboxamido)benzamido)-4-(methylthio)butanoate], for which the “YFM % Control (or Mortality) rating” value in data set [1] is on record as “B (More than 0-Less than 80)”. Also, the mortality at 50 µg/cm2 in data set [2] and in data set [3] was 50 to 100% in each case.
Take `O=C(NCc1ccc(-n2cncn2)cc1)c1cc(NC(=O)[C@H]2[C@H](c3cc(Cl)cc(Cl)c3)C2(Cl)Cl)ccc1Cl` (relative stereo) [PF11, trans-N-(4-(1H-1,2,4-Triazol-1-yl)benzyl)-2-chloro-5-(2,2-dichloro-3-(3,5-dichlorophenyl)cyclopropane-1-carboxamido)benzamide]: the “YFM % Control (or Mortality) rating” value in data set [1] is recorded as “A (80-100)”. Besides, the mortality at 50 µg/cm2 in data set [2] and in data set [3] was 50 to 100% each time.
Regarding `O=C(NCCc1nccs1)c1cc(NC(=O)[C@H]2[C@H](c3cc(Cl)cc(Cl)c3)C2(Cl)Cl)ccc1Cl` (relative stereo) [PF12, trans-2-Chloro-5-(2,2-dichloro-3-(3,5-dichlorophenyl)cyclopropane-1-carboxamido)-N-(2-(thiazol-2-yl)ethyl)benzamide], the “YFM % Control (or Mortality) rating” value in data set [1] is recorded as “A (80-100)”. Also, the mortality at 50 µg/cm2 in data set [2] and in data set [3] was 50 to 100% each time.
In the case of `O=C(NCCn1cccn1)c1cc(NC(=O)[C@H]2[C@H](c3cc(Cl)cc(Cl)c3)C2(Cl)Cl)ccc1Cl` (relative stereo) [PF13, trans-N-(2-(1H-Pyrazol-1-yl)ethyl)-2-chloro-5-(2,2-dichloro-3-(3,5-dichlorophenyl)cyclopropane-1-carboxamido)benzamide], in data set [1], the “YFM % Control (or Mortality) rating” value is reported as “A (80-100)”. Besides, the mortality at 50 µg/cm2 in data set [2] and in data set [3] was 50 to 100% throughout.
For `NS(=O)(=O)CCCNC(=O)c1cc(NC(=O)[C@H]2[C@H](c3cc(Cl)cc(Cl)c3)C2(Cl)Cl)ccc1Cl` (relative stereo) [PF14, trans-2-Chloro-5-(2,2-dichloro-3-(3,5-dichlorophenyl)cyclopropane-1-carboxamido)-N-(3-sulfamoylpropyl)benzamide], the “YFM % Control (or Mortality) rating” value in data set [1] was “D (No activity noticed in this bioassay)”. For the same molecule, the mortality at 50 µg/cm2 in data set [2] lay in the range of 0 to 50%; in data set [3], 50 to 100%.
In the same order, the values of `O=C(NCCc1csc2ccccc12)c1cc(NC(=O)[C@H]2[C@H](c3cc(Cl)cc(Cl)c3)C2(Cl)Cl)ccc1Cl` (relative stereo) [PF15, trans-N-(2-(Benzo[b]thiophen-3-yl)ethyl)-2-chloro-5-(2,2-dichloro-3-(3,5-dichlorophenyl)cyclopropane-1-carboxamido)benzamide] are “A (80-100)”, 50 to 100% and 50 to 100%.
In the same order, the values of `C[C@H](CSCCC(F)(F)F)NC(=O)c1cc(NC(=O)C2C(c3cc(Cl)cc(Cl)c3)C2(Cl)Cl)ccc1Cl` (stereo in doubt) [PF2, trans-2-Chloro-5-(2,2-dichloro-3-(3,5-dichlorophenyl)cyclopropane-1-carboxamido)-N—((R)-1-((3,3,3-trifluoropropyl)thio)propan-2-yl)benzamide] are “A (80-100)”, 50 to 100% and 50 to 100%.
For `C[C@H](CS(=O)(=O)CCC(F)(F)F)NC(=O)c1cc(NC(=O)C2C(c3cc(Cl)cc(Cl)c3)C2(Cl)Cl)ccc1Cl` (stereo in doubt) [PF4, trans-2-Chloro-5-(2,2-dichloro-3-(3,5-dichlorophenyl)cyclopropane-1-carboxamido)-N—((R)-1-((3,3,3-trifluoropropyl)sulfonyl)propan-2-yl)benzamide] the same measures were “A (80-100)”, 50 to 100% and 50 to 100%.
On to `C[C@H](C[S+]([O-])CCC(F)(F)F)NC(=O)c1cc(NC(=O)C2C(c3cc(Cl)cc(Cl)c3)C2(Cl)Cl)ccc1Cl` (stereo in doubt) [PF5, trans-2-Chloro-5-(2,2-dichloro-3-(3,5-dichlorophenyl)cyclopropane-1-carboxamido)-N-((2R)-1-((3,3,3-trifluoropropyl)sulfinyl)propan-2-yl)benzamide], for which the “YFM % Control (or Mortality) rating” value in data set [1] was “A (80-100)”. Also, the mortality at 50 µg/cm2 in data set [2] and in data set [3] was 50 to 100% in each case.
Turning to `C[C@H](C[S+]([O-])CC(F)(F)F)NC(=O)c1cc(NC(=O)C2C(c3cc(Cl)cc(Cl)c3)C2(Cl)Cl)ccc1Cl` (stereo in doubt) [PF7, trans-2-Chloro-5-(2,2-dichloro-3-(3,5-dichlorophenyl)cyclopropane-1-carboxamido)-N-((2R)-1-((2,2,2-trifluoroethyl)sulfinyl)propan-2-yl)benzamide], the “YFM % Control (or Mortality) rating” value in data set [1] was “A (80-100)”. The mortality at 50 µg/cm2 in data set [2] and in data set [3] was 50 to 100% each time.
As for `O=C(NCCC1CC1)c1cc(NC(=O)C2C(c3cc(Cl)cc(Cl)c3)C2(Cl)Cl)ccc1Cl` (stereo not drawn) [F24, trans-N-2-Chloro-N-(2-cyclopropylethyl)-5-(2,2-dichloro-3-(3,5-dichlorophenyl)cyclopropane-1-carboxamido)benzamide], in data set [1], the “YFM % Control (or Mortality) rating” value is on record as “A (80-100)”. The mortality at 50 µg/cm2 in data set [2] and in data set [3] was 50 to 100% each time.
Take `O=C(NCCC1CC1)c1cc(NC(=O)C2C(c3ccc(Cl)c(Cl)c3)C2(Cl)Cl)ccc1Cl` (stereo not drawn) [F25, trans-N-2-Chloro-N-(2-cyclopropylethyl)-5-(2,2-dichloro-3-(3,4-dichlorophenyl)cyclopropane-1-carboxamido)benzamide]: in data set [1], the “YFM % Control (or Mortality) rating” value is recorded as “A (80-100)”. Besides, the mortality at 50 µg/cm2 in data set [2] and in data set [3] was 50 to 100% in each case.
For the molecule `O=C(NCCC1CC1)c1cc(NC(=O)C2C(c3cc(Cl)c(Cl)c(Cl)c3)C2(Cl)Cl)ccc1Cl` (stereo not drawn) [F26, trans-N-2-Chloro-N-(2-cyclopropylethyl)-5-(2,2-dichloro-3-(3,4,5-trichlorophenyl)cyclopropane-1-carboxamido)benzamide], the “YFM % Control (or Mortality) rating” value in data set [1] was “A (80-100)”. The mortality at 50 µg/cm2 in data set [2] and in data set [3] was 50 to 100% throughout.
Regarding `COc1c(F)cc(C2C(C(=O)Nc3ccc(Cl)c(C(=O)NCC(F)(F)F)c3)C2(Cl)Cl)cc1F` (stereo not drawn) [F125, 2-Chloro-5-trans-(2,2-dichloro-3-(3,5-difluoro-4-methoxyphenyl)cyclopropane-1-carboxamido)-N-(2,2,2-trifluoroethyl)benzamide], in data set [1], the “YFM % Control (or Mortality) rating” value was “A (80-100)”. The mortality at 50 µg/cm2 in data set [2] and in data set [3] was 50 to 100% throughout.
